Reference: patent US10336732B2, “1-heterocyclyl isochromanyl compounds and analogs for treating CNS disorders” (Sunovion Pharmaceuticals Inc., priority 2015, dated 2019)

Tested on: mice
Experiment: Neuropharmacological assay (SmartCube), behavioral signature of compound-treated mice
Assay type: in vivo
Conditions: i.p. 15 min before behavioral test, most efficacious dose(s) of 3 doses
In short: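 Read-out is an automated video-based behavioral signature, scored as per-class probabilities (e.g., anxiolytic, antidepressant) against reference compounds. Dosing was i.p. at three doses, 15 min pre-test, in NMP, polyethylene glycol and propylene glycol. Values shown are from the most efficacious dose(s).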

## Cc1ccc2c(c1)[C@H](C1CNC1)OCC2 [Compound I-117, (S)-3-(7-methylisochroman-1-yl)azetidine]
  AD: ADHD (probability that behavioral signature matches class): + (LOQ ≤ + <5%)
  AG: analgesic (probability that behavioral signature matches class): + (LOQ ≤ + <5%)
  AX: anxiolytic (probability that behavioral signature matches class): ++ (5% ≤ ++ <25%)
  CE: cognitive enhancer (probability that behavioral signature matches class): ++ (5% ≤ ++ <25%)
  DP: anti-depressant (probability that behavioral signature matches class): ++ (5% ≤ ++ <25%)
  HA: hallucinogen (probability that behavioral signature matches class): + (LOQ ≤ + <5%)
  MS: mood stabilizer (probability that behavioral signature matches class): + (LOQ ≤ + <5%)
  PS: anti-psychotic (probability that behavioral signature matches class): +++ (25% ≤ +++ <50%)
  SD: sedative hypnotic (probability that behavioral signature matches class): + (LOQ ≤ + <5%)
  UN: uncharacterized CNS activity (probability that behavioral signature matches class): + (LOQ ≤ + <5%)
  XG: anxiogenic (probability that behavioral signature matches class): + (LOQ ≤ + <5%)

## Cc1ccc2c(c1)[C@@H]([C@H]1CCCN1)OCC2 [Compound I-27, (R)-2-((S)-7-methylisochroman-1-yl)pyrrolidine]
  AD: ADHD (probability that behavioral signature matches class): + (LOQ ≤ + <5%)
  AG: analgesic (probability that behavioral signature matches class): ++ (5% ≤ ++ <25%)
  AX: anxiolytic (probability that behavioral signature matches class): +++ (25% ≤ +++ <50%)
  CE: cognitive enhancer (probability that behavioral signature matches class): ++ (5% ≤ ++ <25%)
  DP: anti-depressant (probability that behavioral signature matches class): ++ (5% ≤ ++ <25%)
  HA: hallucinogen (probability that behavioral signature matches class): + (LOQ ≤ + <5%)
  MS: mood stabilizer (probability that behavioral signature matches class): ++ (5% ≤ ++ <25%)
  PS: anti-psychotic (probability that behavioral signature matches class): ++ (5% ≤ ++ <25%)
  SD: sedative hypnotic (probability that behavioral signature matches class): + (LOQ ≤ + <5%)
  UN: uncharacterized CNS activity (probability that behavioral signature matches class): + (LOQ ≤ + <5%)
  XG: anxiogenic (probability that behavioral signature matches class): + (LOQ ≤ + <5%)

## Fc1cccc2c1[C@@H]([C@@H]1CCCN1)OCC2 [Compound I-2, (S)-2-((S)-8-fluoroisochroman-1-yl)pyrrolidine]
  AD: ADHD (probability that behavioral signature matches class): + (LOQ ≤ + <5%)
  AG: analgesic (probability that behavioral signature matches class): + (LOQ ≤ + <5%)
  AX: anxiolytic (probability that behavioral signature matches class): ++ (5% ≤ ++ <25%)
  CE: cognitive enhancer (probability that behavioral signature matches class): + (LOQ ≤ + <5%)
  DP: anti-depressant (probability that behavioral signature matches class): + (LOQ ≤ + <5%)
  HA: hallucinogen (probability that behavioral signature matches class): + (LOQ ≤ + <5%)
  MS: mood stabilizer (probability that behavioral signature matches class): ++ (5% ≤ ++ <25%)
  PS: anti-psychotic (probability that behavioral signature matches class): ++ (5% ≤ ++ <25%)
  SD: sedative hypnotic (probability that behavioral signature matches class): ++ (5% ≤ ++ <25%)
  UN: uncharacterized CNS activity (probability that behavioral signature matches class): + (LOQ ≤ + <5%)
  XG: anxiogenic (probability that behavioral signature matches class): + (LOQ ≤ + <5%)

## N#Cc1ccc2c(c1)CCO[C@H]2[C@@H]1CCCN1 [Compound I-44, (R)-1-((S)-pyrrolidin-2-yl)isochroman-6-carbonitrile]
  AD: ADHD (probability that behavioral signature matches class): + (LOQ ≤ + <5%)
  AG: analgesic (probability that behavioral signature matches class): ++ (5% ≤ ++ <25%)
  AX: anxiolytic (probability that behavioral signature matches class): +++ (25% ≤ +++ <50%)
  CE: cognitive enhancer (probability that behavioral signature matches class): ++ (5% ≤ ++ <25%)
  DP: anti-depressant (probability that behavioral signature matches class): ++ (5% ≤ ++ <25%)
  HA: hallucinogen (probability that behavioral signature matches class): + (LOQ ≤ + <5%)
  MS: mood stabilizer (probability that behavioral signature matches class): ++ (5% ≤ ++ <25%)
  PS: anti-psychotic (probability that behavioral signature matches class): +++ (25% ≤ +++ <50%)
  SD: sedative hypnotic (probability that behavioral signature matches class): + (LOQ ≤ + <5%)
  UN: uncharacterized CNS activity (probability that behavioral signature matches class): + (LOQ ≤ + <5%)
  XG: anxiogenic (probability that behavioral signature matches class): + (LOQ ≤ + <5%)

## c1c2c(cc3c1OCO3)[C@@H]([C@@H]1CCCN1)OCC2 [Compound I-53, (S)-2-((S)-7,8-dihydro-5H-[1,3]dioxolo[4,5-g]isochromen-5-yl)pyrrolidine]
  AD: ADHD (probability that behavioral signature matches class): + (LOQ ≤ + <5%)
  AG: analgesic (probability that behavioral signature matches class): + (LOQ ≤ + <5%)
  AX: anxiolytic (probability that behavioral signature matches class): + (LOQ ≤ + <5%)
  CE: cognitive enhancer (probability that behavioral signature matches class): + (LOQ ≤ + <5%)
  DP: anti-depressant (probability that behavioral signature matches class): + (LOQ ≤ + <5%)
  HA: hallucinogen (probability that behavioral signature matches class): + (LOQ ≤ + <5%)
  MS: mood stabilizer (probability that behavioral signature matches class): + (LOQ ≤ + <5%)
  PS: anti-psychotic (probability that behavioral signature matches class): + (LOQ ≤ + <5%)
  SD: sedative hypnotic (probability that behavioral signature matches class): + (LOQ ≤ + <5%)
  UN: uncharacterized CNS activity (probability that behavioral signature matches class): + (LOQ ≤ + <5%)
  XG: anxiogenic (probability that behavioral signature matches class): + (LOQ ≤ + <5%)

## Fc1cccc2c1[C@H]([C@@H]1CCCN1)OCCC2 [Compound I-105, (S)-2-((R)-9-fluoro-1,3,4,5-tetrahydrobenzo[c]oxepin-1-yl)pyrrolidine]
  AD: ADHD (probability that behavioral signature matches class): + (LOQ ≤ + <5%)
  AG: analgesic (probability that behavioral signature matches class): ++ (5% ≤ ++ <25%)
  AX: anxiolytic (probability that behavioral signature matches class): +++ (25% ≤ +++ <50%)
  CE: cognitive enhancer (probability that behavioral signature matches class): ++ (5% ≤ ++ <25%)
  DP: anti-depressant (probability that behavioral signature matches class): ++ (5% ≤ ++ <25%)
  HA: hallucinogen (probability that behavioral signature matches class): + (LOQ ≤ + <5%)
  MS: mood stabilizer (probability that behavioral signature matches class): + (LOQ ≤ + <5%)
  PS: anti-psychotic (probability that behavioral signature matches class): ++ (5% ≤ ++ <25%)
  SD: sedative hypnotic (probability that behavioral signature matches class): ++ (5% ≤ ++ <25%)
  UN: uncharacterized CNS activity (probability that behavioral signature matches class): ++++ (50% ≤ ++++)
  XG: anxiogenic (probability that behavioral signature matches class): + (LOQ ≤ + <5%)

## Cc1cccc2c1[C@H]([C@H]1CCCN1)OCC2 [Compound I-23, (R)-2-((R)-8-methylisochroman-1-yl)pyrrolidine]
  AD: ADHD (probability that behavioral signature matches class): + (LOQ ≤ + <5%)
  AG: analgesic (probability that behavioral signature matches class): +++ (25% ≤ +++ <50%)
  AX: anxiolytic (probability that behavioral signature matches class): ++ (5% ≤ ++ <25%)
  CE: cognitive enhancer (probability that behavioral signature matches class): ++ (5% ≤ ++ <25%)
  DP: anti-depressant (probability that behavioral signature matches class): ++ (5% ≤ ++ <25%)
  HA: hallucinogen (probability that behavioral signature matches class): + (LOQ ≤ + <5%)
  MS: mood stabilizer (probability that behavioral signature matches class): ++ (5% ≤ ++ <25%)
  PS: anti-psychotic (probability that behavioral signature matches class): +++ (25% ≤ +++ <50%)
  SD: sedative hypnotic (probability that behavioral signature matches class): ++ (5% ≤ ++ <25%)
  UN: uncharacterized CNS activity (probability that behavioral signature matches class): + (LOQ ≤ + <5%)
  XG: anxiogenic (probability that behavioral signature matches class): + (LOQ ≤ + <5%)

## Cc1ccc2c(c1)[C@@H]([C@@H]1CCCN1)OCC2 [Compound I-26, (S)-2-((S)-7-methylisochroman-1-yl)pyrrolidine]
  AD: ADHD (probability that behavioral signature matches class): + (LOQ ≤ + <5%)
  AG: analgesic (probability that behavioral signature matches class): + (LOQ ≤ + <5%)
  AX: anxiolytic (probability that behavioral signature matches class): ++ (5% ≤ ++ <25%)
  CE: cognitive enhancer (probability that behavioral signature matches class): + (LOQ ≤ + <5%)
  DP: anti-depressant (probability that behavioral signature matches class): + (LOQ ≤ + <5%)
  HA: hallucinogen (probability that behavioral signature matches class): + (LOQ ≤ + <5%)
  MS: mood stabilizer (probability that behavioral signature matches class): + (LOQ ≤ + <5%)
  PS: anti-psychotic (probability that behavioral signature matches class): + (LOQ ≤ + <5%)
  SD: sedative hypnotic (probability that behavioral signature matches class): + (LOQ ≤ + <5%)
  UN: uncharacterized CNS activity (probability that behavioral signature matches class): + (LOQ ≤ + <5%)
  XG: anxiogenic (probability that behavioral signature matches class): + (LOQ ≤ + <5%)

## Fc1ccc2c(c1)CO[C@H]2[C@H]1CCN1 [Compound I-128, (R)-2-((R)-5-fluoro-1,3-dihydroisobenzofuran-1-yl)azetidine]
  AD: ADHD (probability that behavioral signature matches class): + (LOQ ≤ + <5%)
  AG: analgesic (probability that behavioral signature matches class): ++ (5% ≤ ++ <25%)
  AX: anxiolytic (probability that behavioral signature matches class): ++ (5% ≤ ++ <25%)
  CE: cognitive enhancer (probability that behavioral signature matches class): + (LOQ ≤ + <5%)
  DP: anti-depressant (probability that behavioral signature matches class): ++ (5% ≤ ++ <25%)
  HA: hallucinogen (probability that behavioral signature matches class): + (LOQ ≤ + <5%)
  MS: mood stabilizer (probability that behavioral signature matches class): + (LOQ ≤ + <5%)
  PS: anti-psychotic (probability that behavioral signature matches class): ++++ (50% ≤ ++++)
  SD: sedative hypnotic (probability that behavioral signature matches class): + (LOQ ≤ + <5%)
  UN: uncharacterized CNS activity (probability that behavioral signature matches class): + (LOQ ≤ + <5%)
  XG: anxiogenic (probability that behavioral signature matches class): + (LOQ ≤ + <5%)

## Fc1ccc2c(c1)CCO[C@H]2[C@@H]1COCCN1 [Compound I-78, (S)-3-((R)-6-fluoroisochroman-1-yl)morpholine]
  AD: ADHD (probability that behavioral signature matches class): + (LOQ ≤ + <5%)
  AG: analgesic (probability that behavioral signature matches class): ++ (5% ≤ ++ <25%)
  AX: anxiolytic (probability that behavioral signature matches class): +++ (25% ≤ +++ <50%)
  CE: cognitive enhancer (probability that behavioral signature matches class): ++ (5% ≤ ++ <25%)
  DP: anti-depressant (probability that behavioral signature matches class): ++ (5% ≤ ++ <25%)
  HA: hallucinogen (probability that behavioral signature matches class): + (LOQ ≤ + <5%)
  MS: mood stabilizer (probability that behavioral signature matches class): + (LOQ ≤ + <5%)
  PS: anti-psychotic (probability that behavioral signature matches class): ++ (5% ≤ ++ <25%)
  SD: sedative hypnotic (probability that behavioral signature matches class): + (LOQ ≤ + <5%)
  UN: uncharacterized CNS activity (probability that behavioral signature matches class): + (LOQ ≤ + <5%)
  XG: anxiogenic (probability that behavioral signature matches class): + (LOQ ≤ + <5%)

## CC1(C)Cc2ccccc2[C@@H]([C@H]2CCCN2)O1 [Compound I-67, (R)-2-((S)-3,3-dimethylisochroman-1-yl)pyrrolidine]
  AD: ADHD (probability that behavioral signature matches class): + (LOQ ≤ + <5%)
  AG: analgesic (probability that behavioral signature matches class): + (LOQ ≤ + <5%)
  AX: anxiolytic (probability that behavioral signature matches class): + (LOQ ≤ + <5%)
  CE: cognitive enhancer (probability that behavioral signature matches class): + (LOQ ≤ + <5%)
  DP: anti-depressant (probability that behavioral signature matches class): + (LOQ ≤ + <5%)
  HA: hallucinogen (probability that behavioral signature matches class): + (LOQ ≤ + <5%)
  MS: mood stabilizer (probability that behavioral signature matches class): + (LOQ ≤ + <5%)
  PS: anti-psychotic (probability that behavioral signature matches class): + (LOQ ≤ + <5%)
  SD: sedative hypnotic (probability that behavioral signature matches class): + (LOQ ≤ + <5%)
  UN: uncharacterized CNS activity (probability that behavioral signature matches class): + (LOQ ≤ + <5%)
  XG: anxiogenic (probability that behavioral signature matches class): + (LOQ ≤ + <5%)
